Consider two compounds from patent US20100111972A1, “Method for preventing or treating opiate tolerance and dependence” (priority 2008, published 2010).

Holding throughout (format): in vivo, mice
The test system of one test is EphB1 receptor protein. Put plainly: Western blot of EphB1 receptor protein in spinal cord. The note with it: SC. How it is done:
(§1) Western blot analysis was used to detect expression of EphB receptors, ephrinBs, and phosphorylated NR2B, ERK and CREB proteins in the SC. A total of 108 mice were used for Western blotting experiments (SC from 4 mice were pooled for each sample and each group consisted of 3 samples). The lumbar segments of the SC were quickly extracted and immediately frozen in liquid nitrogen, and stored at −80° C. The procedure used to quantify temporal changes in protein levels was similar to that previously described (Bundesen et al, 2003). In brief, protein precipitation procedures in conjunction with Western blots were used to detect protein bands with an enhanced chemiluminescent (ECL) detection procedure. Sequential precipitation procedures were used on tissue samples that were lysed in ice-cold (4° C.) lysis buffer [50 mM Tris, pH 7.5, containing 150 mM NaCl, 1% Triton X-100, 0.5% deoxycholate, 0.1% SDS, 0.2 mM EDTA, 10 mM NaF, […], 0.4 mM 4-(2-aminoethyl)-benzenesulfonyl fluoride, and 1 mM sodium orthovanadate. The protein concentration of the lysates was estimated using the method of BCA (Pierce, Ill.), and the total protein content between samples was equalized. […] Data were analyzed with the Molecular Imager (Gel Doc™ XR, 170-8170) and the associated software Quantity One-4.6.5 (Bio-Rad Laboratories, Hercules, Calif.).
(In general: A western blot detects proteins with antibodies after separation by electrophoresis.)

For a further test, the system named is c-Fos. Briefly: c-Fos immunostaining in dorsal horn during morphine withdrawal. The following applies: naloxone challenge after escalating morphine treatment. The protocol: (§2) Mice were anesthetized and perfused transcardially with cold saline followed by ice-cold 4% paraformaldehyde solution. The lumbar segment of the SC was dissected out and post-fixed at 4° C. for 4 h with the paraformaldehyde solution, then the Histo Prep (Fisher Scientific, Fair Lawn, N.J.) embedded blocks were sectioned on a Leica CM1850 cryostat (Leica Microsystems, Germany). Sections (10 μm) were thaw-mounted on to glass slides and allowed to air dry. The immunofluorescence staining was performed as previously described (Kerr et al, 2000). Endogenous peroxidases were blocked by incubating tissue sections with 0.3% hydrogen peroxide for 30 min and 3% normal goat serum for 20 min. […]
(§3) The morphologic details of the immunofluorescence staining on SC were studied under a fluorescence microscope (Olympus BX51WI; Olympus America Inc., Melville, N.Y.). […] Fos-immunoreactive neurons were counted in blind fashion. The number of Fos-like immunoreactive neurons in DH (laminae I-VI) was determined by averaging the counts made in 20 SC sections (L4-L5) for each group. To obtain quantitative measurements of CGRP immunofluorescence, 15-20 fields covering the entire DH in each group were evaluated and photographed at the same exposure time to generate the raw data. Fluorescence intensities of the different groups were analyzed using MicroSuite image analysis software (Olympus America Inc.). […]

The next test concerns p-ERK. Briefly: Western blot of phosphorylated ERK in spinal cord. The note with it: escalated morphine treatment; SC. How it is done:
as §1

A further test deals with p-NR2B. Put plainly: Western blot of phosphorylated NR2B in spinal cord. The note with it: escalated morphine treatment; SC. The protocol: as §1
Test [1] deals with phosphotyrosine (PY99) proteins. Briefly: Western blot of phosphotyrosine (PY99) proteins in spinal cord. The following applies: following escalating morphine treatment or morphine withdrawal; SC. How it is done:
as §1

Another test concerns ephrinB1. Briefly: Western blot of ephrinB1 in spinal cord. The note with it: following escalating morphine treatment or morphine withdrawal; SC. How it is done: as §1
A further test deals with p-CREB. Briefly: Western blot of phosphorylated CREB in spinal cord. The note with it: escalated morphine treatment; SC. How it is done: as §1
The test system of another test is ephrinB2. Put plainly: Western blot of ephrinB2 in spinal cord. The following applies: following escalating morphine treatment or morphine withdrawal; SC. The protocol:
as §1

In a further test the test system is CGRP. Briefly: CGRP immunofluorescence in dorsal horn after morphine treatment and withdrawal. The following applies: repeated morphine exposure (7 escalating i.p. doses). How it is done: as §2, §3

For `C=CCN1CC[C@]23c4c5ccc(O)c4O[C@H]2C(=O)CC[C@@]3(O)[C@H]1C5` [naloxone], the “morphine-induced increase in EphB1 receptor protein expression” value with EphB1 receptor protein (naloxone treatment after escalating morphine) is “did not significantly alter”. Also, the “number of Fos-like immunoreactive neurons in the dorsal horn” value with c-Fos is given as “significantly increased”.
For the compound `CN1CC[C@]23c4c5ccc(O)c4O[C@H]2[C@@H](O)C=C[C@H]3[C@H]1C5` [morphine], the “level of p-ERK protein” value with p-ERK was “significant increases”. Moreover, the “level of p-NR2B protein” value in the test on p-NR2B was “significant increases”. The “expression of phosphotyrosine (PY99) proteins” value in test [1] is reported as “failed to show significant changes”. The “expression of EphB1 receptor protein” value in the test on EphB1 receptor protein (after escalating morphine treatment) was “significantly increased”. Also, in the test on ephrinB1, the “expression of ephrinB1” value is “failed to show significant changes”. Also, in the test on p-CREB, the “level of p-CREB protein” value was “significant increases”. Moreover, in the test with ephrinB2, the “expression of ephrinB2” value was “failed to show significant changes”. Besides, in the test on CGRP, the “expression of CGRP throughout the DH region of the SC” value is reported as “greatly increased”.
